Test results reported in patent US11396643B2, “Compositions comprising bacterial strains and use thereof in controlling pathogenic microorganisms” (Better Air International Limited, priority 2018, dated 2022).

Experiments:
Assay in all cases: Agar well diffusion antifungal assay
Assay type in all cases: cell-based
Details in all cases: PDA plates, 25° C. 72 h
[1] = test system: Alternaria alternata (Fries) Keissler (ATCC MYA-4642)
Method: (§1) Brain Heart Infusion (BHI) Agar was used for the antagonism against pathogenic microorganisms while the Potato Dextrose Agar (PDA) was used for evaluation against molds. […] Molds were prepared using PDA at 25° C. with 85% HR for 7 days. […] The same amount of mold spore suspension was inoculated on PDA.

[2] = test system: Cladosporium sphaerospermum Penzig (ATCC MYA-4645)
Method: as §1

[3] = test system: Penicillium chrysogenum Thom (ATCC MYA-4644)
Method: as §1

Structure (SMILES): OO [Hydrogen peroxide 10%, Hydrogen peroxide]
- Inhibition zone, Alternaria alternata (Fries) Keissler (ATCC MYA-4642) [1]: 8 mm
- Inhibition zone, Cladosporium sphaerospermum Penzig (ATCC MYA-4645) [2]: 12 mm
- Inhibition zone, Penicillium chrysogenum Thom (ATCC MYA-4644) [3]: 10 mm
